Here are results for 2 molecules from paper PMC11148078, “Potent activity of polymyxin B is associated with long-lived super-stoichiometric accumulation mediated by weak-affinity binding to lipid A” (Nature Communications, 2024).

pKd: −log10 of the molar value. Read-outs that look alike come from different tables or passages of the source. Bridge positions count the residues as written; N and C are the ends. Square brackets hold non-standard residues; d marks the D form. Peptide text beside a SMILES is read from it. * marks the point of attachment. X1 = CC[C@H](C)CCCCC(=O)*; Dab = NCC[C@H](N)C(=O)O Some results are limits rather than exact numbers.

The subject of one experiment is lipid A / outer membrane. More on the design: method as in PMID 6414364, PMID 10956216. The conditions noted are these: ref [20],[21]; cited from earlier work.
The subject of a further experiment is bacterial cells. As to conditions: different methods, ref [27]–[31], cited from earlier work. The protocol:
Investigations into the binding of polymyxins to bacterial cells have generally relied on whole-cell and plate-based equilibrium approaches. Different methods have produced equilibrium binding constants (KDs) for polymyxin B ranging from 400 nM up to greater than 100 µM[27]–[31], which are, in some cases, multiple orders-of-magnitude higher than the reported cellular potency of these antibiotics. However, these approaches are likely complicated by the rapid kill-kinetics of polymyxins, non-specific binding of polymyxins to plate surfaces, assumptions of a simple binding mechanism, an inoculum ...

Experiment [1] deals with polymyxin B-resistant E. coli cells expressing mcr-1. Kind of experiment: Whole cell SPR, E. coli expressing mcr-1. It is filed as binding. The protocol:
Bacterial strains were grown in LB or LB with 0.2% arabinose and carbenicillin (50 μg/mL) to log phase (OD600 approximately 0.4–0.6), centrifuged for 10 min at 2500 × g (3500 rpm using a tabletop centrifuge), and re-suspended in PBS to a final OD600 of approximately 5. SPR on whole bacterial cells was performed and analyzed as described for OMVs on C1 chip, but with an additional carry-over wash prior to the capture. Regeneration of the chip after whole cell binding also required additional steps ([…] flow rate): (1) PBS supplemented with 32 mM MgCl2 for 120 s, (2) 2.5 M NaCl for 30 s, (3) 0.5% SDS (Desorb 1, Cytiva) for 60 s with carry over controls between.

Experiment [2] relates to E. coli cells, OMVs, and LPS. Kind of experiment: SPR apparent association rate averaged over cells, OMVs and LPS. It is filed as binding. As to conditions: averaged for cells. The protocol: OMV-coated and whole cell-coated C1 chips were prepared as already described with the following changes and LPS-coated surfaces were prepared identically but with rough-LPS extracted from E. coli F583 (Rd mutant, Sigma #L6893). For LPS, cloudy colloid suspension (above its CMC, ~1 mg/ml) contains LPS micelles that were injected and captured. For all formats, sample buffer and running buffer were composed of Dulbecco’s phosphate-buffered salt solution containing 0.0005% tween-80 (Sigma), 1 mM calcium and 0.5 mM magnesium (Fisher Scientific), pH 7.4. Analysis and compartment temperatures were both set to 37 °C. Freshly prepared OMV-coated or whole cell-coated sensing surfaces were employed for each injection of polymyxin B while LPS-coated sensing surfaces could be fully regenerated by injecting 50 mM CHAPS. Reversibly bound PMBN could be reinjected over all surfaces without requiring regeneration as it fully dissociated within a few minutes.
Fresh sensing surfaces coated with whole cells and OMVs were prepared and 325 nM polymyxin B was injected at […] for 120 s over both. This injection was repeated after a long delay, and without regeneration, in order to allow free sites to become available thereby resulting in two polymyxin B binding curves for each sensing surface (Fig. 3E, F). […]

In a further experiment the test system is wt-OMVs. Kind of experiment: SPR chaser analysis (residence time), wt-OMVs. It is filed as binding, E. coli. As to conditions: for t1/2: n≥3, (SD). On the procedure:
The off-rate of the tightly bound fraction was estimated using a chaser analysis, where OMVs were pre-saturated with polymyxin B and then re-saturated after an extended time interval (Supplementary Information Fig. S11A). […] A t1/2 of >6 h was determined for polymyxin B binding to OMVs at both 25 and 37 °C (SI Table S3). The t1/2 of brevicidine, also measured by chaser analysis, was approximately 1 h on both wt-OMVs and polymyxin-resistant-OMVs (SI Table S3).
Binding and kinetic analysis of SPR-OMV assays […]
To determine the residence time of the test compound with OMVs, the ‘chaser method’ was used because it accounts for drift that can occur in the system over long incubation times 13. OMVs were loaded onto the chip as described above then 5 µM polymyxin B was injected using the ‘low-sample consumption’ setting for 300 sec ([…] flow rate), followed by a 240 sec dissociation time. A second dose of 5 µM polymyxin B was then injected for 60 sec ([…]) to assure saturation followed by a 2 h dissociation time prior to the ‘chaser’, a 60 sec pulse of 5 µM polymyxin B. The RUs of associated polymyxin B were determined 120 sec after the start of the dissociation. The change in RUs from before dosing to after the second dose, and the change in RUs from prior to the ‘chaser’ dose and 120 sec after the start of its dissociation were used to calculate the fraction occupancy of the material and the residence time/half-life as described 13. […]
PMBN) to LPS for 20 min. […]
20 sec with a Solarus plasma cleaner (Gatan). Grids were blotted and plunge-frozen by Vitrobot (ThermoFisher Scientific, Waltham, MA) at 4°C, 100% relative humidity, blot force 7, and a 3 sec […]
TEM data collection was performed using a Titan Krios G3i (ThermoFisher Scientific, Waltham, MA) operating at 300 kV equipped with a BioQuantum energy filter and a K3 Summit direct electron detector operating at a nominal magnification of 105,000x (0.838 Å/pixel), an energy slit width of 20 eV, defocus range -1 to -3 μm, 3-sec exposure time, 60 frames per movie, a total electron fluence of ~64 e/Å2. Microscope and camera automation was accomplished by SerialEM14, and image processing (motion correction & CTF estimation) was performed using […]
Standard cryo-EM image processing software and methods were incompatible with the vesicle images, so a blinded visual scoring method for image analysis was used. Approximately 50 images from each sample and treatment condition that each contained at least one OMV (pooled in a single folder and blinded) were scored for number of vesicles touching (0-10+), and if the vesicle membranes appeared disrupted or abnormal. Sampling was not completely random as images of vesicles could not be obtained from areas with significant clumping. Images shown in […]

On to `CC(C)C[C@@H]1NC(=O)[C@@H](Cc2ccccc2)NC(=O)[C@H](CCN)NC(=O)[C@@H](NC(=O)[C@H](CCN)NC(=O)[C@@H](N)[C@@H](C)O)CCNC(=O)[C@H]([C@@H](C)O)NC(=O)[C@H](CCN)NC(=O)[C@H](CCN)NC1=O` [PMBN] (H-T[Dab][Dab][Dab][dF]L[Dab][Dab]T; lactam 3-C), for which, in the experiment on lipid A / outer membrane, the “antibacterial activity and lipid A binding” value was “do not possess antibacterial activity, nonetheless bind to lipid A and permeabilize the outer membrane”.
Take `CC[C@H](C)CCCCC(=O)N[C@@H](CCN)C(=O)N[C@H](C(=O)N[C@@H](CCN)C(=O)N[C@H]1CCNC(=O)[C@H]([C@@H](C)O)NC(=O)[C@H](CCN)NC(=O)[C@H](CCN)NC(=O)[C@H](CC(C)C)NC(=O)[C@@H](Cc2ccccc2)NC(=O)[C@H](CCN)NC1=O)[C@@H](C)O` [Polymyxin B] (X1-[Dab]T[Dab][Dab][Dab][dF]L[Dab][Dab]T; lactam 4-C (inferred); N-terminus assumed): the pKd in the experiment with bacterial cells (read-out: equilibrium binding constant KD, lower end) was 6.40; in the experiment on bacterial cells (read-out: equilibrium binding constant KD, upper end), below 4.00. In addition, the “SPR binding profile” value in experiment [1] is “same polymyxin B binding profiles were observed”. For the same molecule, the “ka, apparent association rate constant” value in experiment [2] is 2.1 (±0.78) × 10^5 M^−1 s^−1. Besides, the “t1/2 of tightly bound state” value with wt-OMVs (25 and 37 °C) is given as above 6 h. Further, the t1/2 is 6.86 (2.11) h in the experiment with wt-OMVs (25 °C) and 7.27 (2.15) h with wt-OMVs (37 °C).

What is called pKd is −log10 of the Kd, conventionally taken in molar units.
